Common to all, as to test: Qualitative test of AARS substrate specificity (molybdenum blue method)
Holding throughout (assay type): biochemical, Thermotoga maritima MSB8 strain
What all share (design): key: +: Activity was detected; −: Activity was not detected

One assay concerns the target T1, Thermotoga-derived CysRS (Thermotoga maritima, UniProt Q9WZH8).
T1 construct: The amplification products were each inserted into pET-28a to obtain plasmids for expression of respective AARSs; His tag (C); made in house; host or cells: Escherichia coli BL21 (DE3)
T1 sequence (Q9WZH8 1-460): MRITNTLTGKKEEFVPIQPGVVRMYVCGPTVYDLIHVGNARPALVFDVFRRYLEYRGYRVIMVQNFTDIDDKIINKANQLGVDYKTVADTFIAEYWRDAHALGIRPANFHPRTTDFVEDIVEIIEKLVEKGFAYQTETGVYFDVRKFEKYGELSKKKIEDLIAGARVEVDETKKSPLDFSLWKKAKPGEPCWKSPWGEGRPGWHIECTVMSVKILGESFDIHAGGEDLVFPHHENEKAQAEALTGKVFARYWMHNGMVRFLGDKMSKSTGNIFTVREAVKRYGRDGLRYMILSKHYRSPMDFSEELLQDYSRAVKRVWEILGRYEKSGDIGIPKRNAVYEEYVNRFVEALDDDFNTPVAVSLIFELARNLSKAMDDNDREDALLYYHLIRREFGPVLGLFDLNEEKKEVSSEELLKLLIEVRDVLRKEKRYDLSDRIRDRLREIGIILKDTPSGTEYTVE
The following applies: Tyr 1 mM, other amino acids 5 mM; hydroxylamine 1000 mM; CysRS 0.3 mg/ml (8 mU/ml); 30° C. The method, then:
(§1) A test sample containing an amino acid as the measurement subject and a reaction mixture for quantifying amino acid having the following composition were mixed. The mixture was left standing at 30° C. to allow the AARS reaction to advance. The mixture in a volume of 33 μl, 66 μl of water, and 1 μl of a 300 U/ml yeast pyrophosphatase solution were mixed, and left standing at room temperature for 20 minutes to allow the pyrophosphatase reaction to advance. Then, the reaction mixture was mixed with 100 μl of a color development solution A and 30 μl of a color developing solution B having the following compositions, then the mixture was left standing at room temperature for 5 minutes, and the absorbance was measured at 700 nm or 900 nm with a microplate reader.
(§2) Reaction mixture for quantifying amino acid: 20 mM Tris-HCl (pH 7.0), 5 mM MgCl2, 2 mM ATP, and AARS (concentrations are final concentrations obtained after mixing with test sample)
(§3) Color developing solution A: A solution obtained by mixing water and concentrated sulfuric acid at a ratio of 3:1 and dissolving (NH4)6Mo7O24.4H2O in the mixture at a concentration of 0.066 g/ml
(§4) Color developing solution B: A solution obtained by mixing water and concentrated sulfuric acid at a ratio of 10000:7 and dissolving FeSO4.7H2O in the mixture at a concentration of 145 mg/ml
(§5) Presence or absence of pyrophosphate generation was verified for the Thermotoga-derived CysRS, HisRS, LysRS, ProRS, SerRS, TrpRS, and TyrRS by using the AARS activity measurement method described in 9. and standard solutions of the various amino acids as test samples. AARSs were added to the reaction mixture at final concentrations of 0.3 (8 mU/ml), 0.1, 0.2 (3 mU/ml), 0.2, 0.1 (1 mU/ml), 0.1, 0.2 (20 mU/ml) mg/ml, respectively. The reaction mixtures were prepared so that the final concentration of Tyr was 1 mM, and the final concentrations of the other amino acids were 5 mM. As for the hydroxylamine concentration, it was added at a final concentration of 1000 mM for all the cases. Further, presence or absence of pyrophosphate production was also verified for the Thermus-derived MetRS and TyrRS by using the AARS activity measurement method described in 10. and standard solutions of the various amino acids as test samples. The reaction mixtures were prepared so that the final concentrations of the amino acids were 200 μM. Hydroxylamine was added at a final concentration of 400 mM.
(§6) Detection or no detection of the activity in the reaction mixtures containing a combination of each AARS and amino acid are shown in Table 2. The symbol + indicates detection of the activity, and − indicates no detection of the activity.

The next assay concerns the target T2, Thermotoga-derived LysRS (Thermotoga maritima, UniProt Q9X231).
T2 construct: His tag (C); made in house; host or cells: Escherichia coli BL21 (DE3)
T2 sequence (Q9X231 1-502): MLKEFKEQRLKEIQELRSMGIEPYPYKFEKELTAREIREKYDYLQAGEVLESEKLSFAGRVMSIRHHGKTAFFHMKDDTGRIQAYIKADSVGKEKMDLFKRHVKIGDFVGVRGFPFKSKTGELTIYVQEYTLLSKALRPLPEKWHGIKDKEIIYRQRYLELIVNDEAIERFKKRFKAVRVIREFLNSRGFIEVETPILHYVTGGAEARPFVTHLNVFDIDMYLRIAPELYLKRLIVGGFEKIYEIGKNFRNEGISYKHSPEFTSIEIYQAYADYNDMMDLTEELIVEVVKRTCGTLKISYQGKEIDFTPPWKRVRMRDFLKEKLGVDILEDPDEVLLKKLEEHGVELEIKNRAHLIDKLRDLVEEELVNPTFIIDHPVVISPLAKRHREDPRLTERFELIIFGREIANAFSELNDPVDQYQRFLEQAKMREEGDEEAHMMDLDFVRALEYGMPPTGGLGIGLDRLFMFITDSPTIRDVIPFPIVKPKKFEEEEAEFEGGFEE
To be noted: Tyr 1 mM, other amino acids 5 mM; hydroxylamine 1000 mM; LysRS 0.2 mg/ml (3 mU/ml); 30° C. Here is the method: as §1, §2, §3, §4, §5, §6

Another assay has as its target T3, Thermotoga-derived SerRS (Thermotoga maritima, UniProt Q9X199).
T3 construct: His tag (C); made in house; host or cells: Escherichia coli BL21 (DE3)
The following applies: Tyr 1 mM, other amino acids 5 mM; hydroxylamine 1000 mM; SerRS 0.1 mg/ml (1 mU/ml); 30° C. The method, then: as §1, §2, §3, §4, §5, §6

In a further assay the target is T4, Thermotoga-derived TrpRS (Thermotoga maritima, UniProt Q9WYW2).
T4 construct: His tag (C); made in house; host or cells: Escherichia coli BL21 (DE3)
T4 sequence (Q9WYW2 1-328): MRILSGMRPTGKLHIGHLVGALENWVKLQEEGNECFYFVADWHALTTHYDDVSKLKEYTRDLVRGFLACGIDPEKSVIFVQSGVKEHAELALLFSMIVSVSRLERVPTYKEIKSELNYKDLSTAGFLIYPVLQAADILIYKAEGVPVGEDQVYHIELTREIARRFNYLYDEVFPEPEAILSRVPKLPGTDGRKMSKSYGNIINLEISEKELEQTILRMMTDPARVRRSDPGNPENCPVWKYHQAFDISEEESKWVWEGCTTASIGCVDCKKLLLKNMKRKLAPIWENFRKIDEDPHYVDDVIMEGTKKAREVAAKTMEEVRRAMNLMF
The following applies: Tyr 1 mM, other amino acids 5 mM; hydroxylamine 1000 mM; TrpRS 0.1 mg/ml; 30° C. The method, then:
as §1, §2, §3, §4, §5, §6

The record followed here is patent US9708639B2, “Method for quantifying amino acids with pyrophosphate” (TOYAMA PREFECTURE, priority 2012, dated 2017).

T3 sequence (Q9X199 whole entry): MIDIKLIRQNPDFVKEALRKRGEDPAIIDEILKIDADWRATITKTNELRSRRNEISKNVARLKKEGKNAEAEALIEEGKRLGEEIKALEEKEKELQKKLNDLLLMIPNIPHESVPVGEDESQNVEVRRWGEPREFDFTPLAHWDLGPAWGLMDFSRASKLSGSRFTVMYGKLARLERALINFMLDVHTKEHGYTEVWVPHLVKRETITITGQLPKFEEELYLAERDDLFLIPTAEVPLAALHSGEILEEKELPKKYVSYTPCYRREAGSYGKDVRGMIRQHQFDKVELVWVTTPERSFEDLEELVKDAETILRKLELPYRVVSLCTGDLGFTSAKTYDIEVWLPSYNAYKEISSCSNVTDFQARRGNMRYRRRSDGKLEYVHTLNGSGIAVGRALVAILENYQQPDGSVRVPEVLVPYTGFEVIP

Consider `N[C@@H](CS)C(=O)O` [Cys, L-cysteine], for which the “Detection of the activity (pyrophosphate generation), CysRS” value on Thermotoga-derived CysRS is “+”. In addition, the “Detection of the activity (pyrophosphate generation), LysRS” value on Thermotoga-derived LysRS is on record as “−”. Moreover, the “Detection of the activity (pyrophosphate generation), SerRS” value on Thermotoga-derived SerRS is “−”. The “Detection of the activity (pyrophosphate generation), TrpRS” value on Thermotoga-derived TrpRS is recorded as “−”.
As for `N[C@@H](CC(=O)O)C(=O)O` [Asp, L-aspartic acid], the “Detection of the activity (pyrophosphate generation), CysRS” value on Thermotoga-derived CysRS is given as “−”. For the same molecule, the “Detection of the activity (pyrophosphate generation), LysRS” value on Thermotoga-derived LysRS is reported as “−”. Also, on Thermotoga-derived SerRS, the “Detection of the activity (pyrophosphate generation), SerRS” value is reported as “−”. Further, the “Detection of the activity (pyrophosphate generation), TrpRS” value at Thermotoga-derived TrpRS is “−”.
